Test results as given in ChEMBL document CHEMBL3085684, “Unraveling phosphodiesterase surfaces. Identification of phosphodiesterase 7 allosteric modulation cavities” (Eur J Med Chem, 2013).
Activity calls are given as the source filed them. No cut-off for these calls is given here.

Key:
[1] = biological target: T1, High affinity 3',5'-cyclic-AMP phosphodiesterase 7A (Homo sapiens, UniProt Q13946); test: Inhibition of human recombinant PDE7A1 using […] after 20 mins by scintillation proximity assay
[2] = biological target: T1, High affinity 3',5'-cyclic-AMP phosphodiesterase 7A; test: Competitive inhibition of human recombinant PDE7A1 using […] after 20 mins by Lineweaver-Burk plot analysis
[3] = biological target: T1, High affinity 3',5'-cyclic-AMP phosphodiesterase 7A; test: Non-competitive mixed type inhibition of human recombinant PDE7A1 using […] after 20 mins by Lineweaver-Burk plot analysis

T1 sequence (Q13946 whole entry): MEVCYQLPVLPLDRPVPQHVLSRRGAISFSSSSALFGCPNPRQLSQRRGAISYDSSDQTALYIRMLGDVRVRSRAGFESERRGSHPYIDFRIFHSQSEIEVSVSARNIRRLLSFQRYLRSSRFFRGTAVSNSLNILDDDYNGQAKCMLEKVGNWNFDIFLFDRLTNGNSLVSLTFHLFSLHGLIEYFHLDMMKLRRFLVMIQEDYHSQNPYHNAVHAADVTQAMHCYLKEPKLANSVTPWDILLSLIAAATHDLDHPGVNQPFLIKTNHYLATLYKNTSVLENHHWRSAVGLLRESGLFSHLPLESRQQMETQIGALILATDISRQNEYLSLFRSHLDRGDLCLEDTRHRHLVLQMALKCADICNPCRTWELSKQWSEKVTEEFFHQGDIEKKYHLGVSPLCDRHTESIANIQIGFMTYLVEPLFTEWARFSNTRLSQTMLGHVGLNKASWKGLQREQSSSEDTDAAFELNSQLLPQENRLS

Compound	IC50 [1]	other results
Cc1cccc2c(=O)n(-c3c(F)cccc3F)c(=S)[nH]c12	9.3 µM	
CSc1nc2ccc(Br)cc2c(=O)n1-c1ccc(F)c(F)c1F	5.07 µM	
O=c1c2ccccc2nc(SCc2ccccc2)n1-c1ccccc1		competitive inhibition (Lineweaver-Burk) [2]: Active
CSc1nc2c(Cl)cccc2c(=O)n1-c1c(F)cccc1F	15.2 µM	
CCSc1nc2ccccc2c(=O)n1-c1ccccc1		competitive inhibition (Lineweaver-Burk) [2]: Active
CSc1nc2ccccc2c(=S)n1-c1ccccc1Br	5.33 µM	
O=c1c2ccccc2[nH]c(=S)n1-c1ccc(F)c(F)c1F	7.02 µM	
S=c1[nH]c2ccccc2c(=S)n1-c1ccccc1		inhibition [3]: Active
CSc1nc2ccccc2c(=O)n1-c1c(F)cccc1F		competitive inhibition (Lineweaver-Burk) [2]: Active
CSc1nc2ccccc2c(=S)n1-c1c(F)cccc1F	3.23 µM	
O=c1c2ccccc2[nH]c(=S)n1-c1ccccc1		inhibition [3]: Active
CC(C)Cn1c(=O)n(C)c(=O)c2nc[nH]c21		competitive inhibition (Lineweaver-Burk) [2]: Active
CSc1nc2c(C)cccc2c(=O)n1-c1ccccc1Br	1.69 µM	
Fc1cccc(F)c1-n1c(=S)[nH]c2ccccc2c1=S	0.48 µM	
